Experimental findings from US20260055102A1 (Redx Pharma Limited, priority 2022, published 2026) are described below.

Experiment [1] has as its target Recombinant human DDR1 (aa440-876 containing a GST tag) (Homo sapiens (Human), UniProt Q08345). As to the kind of experiment: LanthaScreen Eu Kinase Binding Assay DDR1. Particulars: Kinase Tracer 178 5 nM, at least two independent replicates; for IC50: read-out: DDR1 pIC50 (converted). The procedure:
(§1) DDR1 and DDR2 Biochemical Assay Method The capacity of compounds to bind to DDR1 and DDR2 was quantified using a LanthaScreen Eu Kinase Binding Assay. Recombinant human DDR1 (2.5 nM; aa440-876 containing a GST tag) and DDR2 (1.75 nM; aa427-855 containing a GST tag) were diluted in assay buffer (50 mM HEPES pH7.3, 10 mM MgCl2, 1 mM EGTA and 0.01% Tween) with various concentrations of compound in a 384-well plate and a volume of 5 uL. After a 30-minute incubation at room temperature, 2.5 uL of Eu-anti GST antibody (diluted to 1 nM in assay buffer) plus Kinase Tracer 178 (diluted in assay buffer to 5 nM for DDR1 and 10 nM for DDR2) were added to the plate. Following 60-minute incubation at room temperature, time-resolved fluorescence was measured on a BMG Labtech PHERAstar plate reader. DMSO (1%) and reference compound (1 μM) were used to generate the Max and Min assay signals, respectively. Data was analysed using a four-parameter logistic model to calculate IC50 values, with at least two independent replicates were performed for each compound.
(In general: In TR-FRET formats the signal depends on donor and acceptor labels being close together.)

The target in experiment [2] is Recombinant human DDR2 (aa427-855 containing a GST tag) (Homo sapiens (Human), UniProt Q16832). Description: LanthaScreen Eu Kinase Binding Assay DDR2. Particulars: Kinase Tracer 178 10 nM, at least two independent replicates; for IC50: read-out: DDR2 pIC50 (converted). The protocol:
as §1

Recombinant human DDR1 (aa440-876 containing a GST tag), sequence (Q08345 other isoform, or with tags, fused parts or gaps): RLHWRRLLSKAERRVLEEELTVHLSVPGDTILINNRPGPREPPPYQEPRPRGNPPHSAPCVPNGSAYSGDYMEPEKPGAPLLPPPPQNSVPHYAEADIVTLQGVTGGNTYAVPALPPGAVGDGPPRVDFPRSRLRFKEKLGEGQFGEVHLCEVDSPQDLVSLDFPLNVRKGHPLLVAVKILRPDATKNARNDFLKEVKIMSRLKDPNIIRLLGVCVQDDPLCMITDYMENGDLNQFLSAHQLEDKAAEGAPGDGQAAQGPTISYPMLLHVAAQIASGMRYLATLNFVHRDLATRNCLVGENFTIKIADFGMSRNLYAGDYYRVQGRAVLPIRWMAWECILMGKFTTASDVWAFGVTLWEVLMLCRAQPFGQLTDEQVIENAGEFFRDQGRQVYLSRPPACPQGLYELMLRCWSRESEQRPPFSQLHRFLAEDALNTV
Recombinant human DDR2 (aa427-855 containing a GST tag), sequence (Q16832 427-855): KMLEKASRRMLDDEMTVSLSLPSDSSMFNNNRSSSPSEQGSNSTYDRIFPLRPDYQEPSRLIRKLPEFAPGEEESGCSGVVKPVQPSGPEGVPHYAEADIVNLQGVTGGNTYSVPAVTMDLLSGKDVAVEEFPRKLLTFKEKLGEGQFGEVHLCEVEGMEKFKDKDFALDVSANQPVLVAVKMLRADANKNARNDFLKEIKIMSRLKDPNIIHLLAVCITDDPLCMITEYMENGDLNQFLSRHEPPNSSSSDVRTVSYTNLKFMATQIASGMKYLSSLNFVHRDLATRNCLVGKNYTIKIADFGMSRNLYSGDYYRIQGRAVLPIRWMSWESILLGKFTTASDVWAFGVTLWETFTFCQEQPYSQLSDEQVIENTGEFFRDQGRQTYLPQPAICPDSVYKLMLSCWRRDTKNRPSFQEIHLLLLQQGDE

As to `Cn1ncc2c(-c3ccc(-n4c(=O)n(CC(=O)NCCC(F)(F)F)c5ccccc54)cc3)cncc21` [Example 46, 2-[3-[4-(1-methylpyrazolo[3,4-c]pyridin-4-yl)phenyl]-2-oxo-benzimidazol-1-yl]-N-(3,3,3-trifluoropropyl)acetamide], in experiment [1], the IC50 was 10 to 100 nM. Also, in experiment [2], the “DDR2 pIC50” value was “D (pIC50≤6)”.
In the case of `Cc1cccc2c1n(-c1ccc(-c3cncc4c3cnn4C)cc1)c(=O)n2CC(=O)N1CCO[C@H](C(F)(F)F)C1` [Example 42, 4-methyl-3-[4-(1-methylpyrazolo[3,4-c]pyridin-4-yl)phenyl]-1-[2-oxo-2-[(2S)-2-(trifluoromethyl)morpholin-4-yl]ethyl]benzimidazol-2-one], the “DDR1 pIC50” value in experiment [1] was “A (pIC50>8)”. Also, the IC50 in experiment [2] was 10 to 100 nM.
For the molecule `Cn1ncc2c(-c3ccc(-n4c(=O)n(CC(=O)NCC(F)(F)F)c5ccncc54)cc3)cncc21` [Example 77, 2-[3-[4-(1-methylpyrazolo[3,4-c]pyridin-4-yl)phenyl]-2-oxo-imidazo[4,5-c]pyridin-1-yl]-N-(2,2,2-trifluoroethyl)acetamide], the “DDR1 pIC50” value in experiment [1] is given as “D (pIC50≤6)”. In addition, the “DDR2 pIC50” value in experiment [2] was “D (pIC50≤6)”.
For the molecule `Cc1cc(-c2cncc3c2cnn3C)ncc1-n1c(=O)n(CC(=O)N[C@@H](C)C(F)(F)F)c2cccc(C)c21` [Example 106], the IC50 was 10 to 100 nM in experiment [1] and 100 to 1000 nM in experiment [2].
As for `Cn1ncc2c(-c3ccc(-n4c(=O)n(CC(=O)N5CCCC[C@H]5C(F)(F)F)c5ccccc54)cc3)cncc21` [Example 32, 1-[4-(1-methylpyrazolo[3,4-c]pyridin-4-yl)phenyl]-3-[2-oxo-2-[(2S)-2-(trifluoromethyl)-1-piperidyl]ethyl]benzimidazol-2-one], the “DDR1 pIC50” value in experiment [1] is given as “A (pIC50>8)”. The IC50 in experiment [2] is 100 to 1000 nM.
Consider `Cc1cccc2c1n(-c1ccc(-c3cncc4c3cnn4C)nc1)c(=O)n2CC(=O)N1CCOC[C@H]1C(F)(F)F` [Example 53, 4-methyl-3-[6-(1-methylpyrazolo[3,4-c]pyridin-4-yl)-3-pyridyl]-1-[2-oxo-2-[(3S)-3-(trifluoromethyl)morpholin-4-yl]ethyl]benzimidazol-2-one], for which the “DDR1 pIC50” value in experiment [1] is given as “A (pIC50>8)”. Moreover, in experiment [2], the IC50 was 10 to 100 nM.
Turning to `Cc1cccc2c1n(-c1ccc(-c3cncc4c3cnn4C)cc1)c(=O)n2CC(=O)N1CCOC(C(F)(F)F)C1` (centres unmarked) [Example 9, 4-methyl-3-[4-(1-methylpyrazolo[3,4-c]pyridin-4-yl)phenyl]-1-[2-oxo-2-[2-(trifluoromethyl)morpholin-4-yl]ethyl]benzimidazol-2-one], the “DDR1 pIC50” value in experiment [1] is “A (pIC50>8)”. Besides, the IC50 in experiment [2] is 10 to 100 nM.
For the molecule `Cn1ncc2c(-c3ccc(-n4c(=O)n(CC(=O)NCC(F)(F)F)c5cccc(Cl)c54)cc3)cncc21` [Example 11, 2-[4-chloro-3-[4-(1-methylpyrazolo[3,4-c]pyridin-4-yl)phenyl]-2-oxobenzimidazol-1-yl]-N-(2,2,2-trifluoroethyl)acetamide], the “DDR1 pIC50” value in experiment [1] was “A (pIC50>8)”. For the same molecule, the IC50 in experiment [2] was 10 to 100 nM.
As to `Cc1cccc2c1n(-c1ccc(-c3cncc4c3cnn4C)cc1)c(=O)n2CC(=O)N1CCC[C@H]1C(F)F` [Example 43, 1-[2-[(2S)-2-(difluoromethyl)pyrrolidin-1-yl]-2-oxo-ethyl]-4-methyl-3-[4-(1-methylpyrazolo[3,4-c]pyridin-4-yl)phenyl]benzimidazol-2-one], the “DDR1 pIC50” value in experiment [1] is “A (pIC50>8)”. The IC50 in experiment [2] was 10 to 100 nM.
With `Cc1nc(-n2c(=O)n(CC(=O)N[C@@H](C)C(F)(F)F)c3cccc(C)c32)cnc1-c1cncc2c1cnn2C` [Example 101, 2-[4-methyl-3-[6-methyl-5-(1-methylpyrazolo[3,4-c]pyridin-4-yl)pyrazin-2-yl]-2-oxo-benzimidazol-1-yl]-N-[(1S)-2,2,2-trifluoro-1-methyl-ethyl]acetamide], in experiment [1], the IC50 was 100 to 1000 nM. Further, the “DDR2 pIC50” value in experiment [2] is reported as “D (pIC50≤6)”.
